Laboratory results from US10844077B2, “Thiazolyl-containing compounds for treating proliferative diseases” (Dana-Farber Cancer Institute, Inc., priority 2014, dated 2020).
Read-outs that look alike come from different tables or passages of the source.

Experiments:
Assay type in all cases: binding
broad panel of kinases [1] = target: broad panel of kinases (Homo sapiens, UniProt Q6XUX3); conditions: RIPK5; 1 μM
broad panel of kinases [2] = target: broad panel of kinases (Homo sapiens, UniProt O15146); conditions: MUSK; 1 μM
broad panel of kinases [3] = target: broad panel of kinases (Homo sapiens, UniProt P09769); conditions: FGR; 1 μM
Chain of broad panel of kinases (Homo sapiens, UniProt P09769) (P09769 2-529 limits assumed): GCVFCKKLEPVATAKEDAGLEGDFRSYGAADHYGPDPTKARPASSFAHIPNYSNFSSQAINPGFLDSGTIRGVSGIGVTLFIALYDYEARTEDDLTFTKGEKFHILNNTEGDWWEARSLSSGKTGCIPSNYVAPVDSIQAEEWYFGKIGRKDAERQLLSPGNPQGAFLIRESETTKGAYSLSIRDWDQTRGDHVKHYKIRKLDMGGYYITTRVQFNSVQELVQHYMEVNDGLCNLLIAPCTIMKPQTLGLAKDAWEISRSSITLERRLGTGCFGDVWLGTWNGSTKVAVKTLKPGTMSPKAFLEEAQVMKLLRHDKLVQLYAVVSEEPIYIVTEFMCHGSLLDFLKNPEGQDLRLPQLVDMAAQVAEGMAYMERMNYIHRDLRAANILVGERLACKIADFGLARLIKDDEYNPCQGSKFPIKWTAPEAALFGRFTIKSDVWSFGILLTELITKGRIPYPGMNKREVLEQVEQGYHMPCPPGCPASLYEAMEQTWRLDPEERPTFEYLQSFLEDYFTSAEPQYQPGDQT

broad panel of kinases [4] = target: broad panel of kinases (Homo sapiens, UniProt P54646); conditions: AMPK-alpha2; 1 μM
broad panel of kinases [5] = target: broad panel of kinases (Homo sapiens, UniProt Q5S007); conditions: LRRK2; 1 μM
broad panel of kinases [6] = target: broad panel of kinases (Homo sapiens, UniProt O14733); conditions: MKK7; 1 μM
Chain of broad panel of kinases (Homo sapiens, UniProt O14733) (O14733 2-419 limits assumed): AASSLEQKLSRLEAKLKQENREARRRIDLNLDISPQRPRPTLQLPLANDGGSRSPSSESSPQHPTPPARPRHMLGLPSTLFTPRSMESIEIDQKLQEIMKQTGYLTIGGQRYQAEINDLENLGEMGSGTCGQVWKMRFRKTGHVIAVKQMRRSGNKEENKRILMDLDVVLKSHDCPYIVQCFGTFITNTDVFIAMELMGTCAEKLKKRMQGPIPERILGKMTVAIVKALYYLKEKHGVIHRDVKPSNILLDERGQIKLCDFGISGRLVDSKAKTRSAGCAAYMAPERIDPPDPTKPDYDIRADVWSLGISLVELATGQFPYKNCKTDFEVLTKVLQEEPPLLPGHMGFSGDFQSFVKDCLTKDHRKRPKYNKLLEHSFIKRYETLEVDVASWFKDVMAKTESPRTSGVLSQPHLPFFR

broad panel of kinases [7] = target: broad panel of kinases (Homo sapiens, UniProt P41743); conditions: PRKCI; 1 μM
broad panel of kinases [8] = target: broad panel of kinases (Homo sapiens, UniProt P42685); conditions: FRK; 1 μM
broad panel of kinases [9] = target: broad panel of kinases (Homo sapiens, UniProt P07949, V804M); conditions: RET(V804M); 1 μM
broad panel of kinases [10] = target: broad panel of kinases (Homo sapiens, UniProt P51812); conditions: 1 μM
broad panel of kinases [11] = target: broad panel of kinases (Homo sapiens, UniProt P00533); conditions: EGFR; 1 μM
Chain of broad panel of kinases (Homo sapiens, UniProt P00533) (P00533 25-1210 limits assumed): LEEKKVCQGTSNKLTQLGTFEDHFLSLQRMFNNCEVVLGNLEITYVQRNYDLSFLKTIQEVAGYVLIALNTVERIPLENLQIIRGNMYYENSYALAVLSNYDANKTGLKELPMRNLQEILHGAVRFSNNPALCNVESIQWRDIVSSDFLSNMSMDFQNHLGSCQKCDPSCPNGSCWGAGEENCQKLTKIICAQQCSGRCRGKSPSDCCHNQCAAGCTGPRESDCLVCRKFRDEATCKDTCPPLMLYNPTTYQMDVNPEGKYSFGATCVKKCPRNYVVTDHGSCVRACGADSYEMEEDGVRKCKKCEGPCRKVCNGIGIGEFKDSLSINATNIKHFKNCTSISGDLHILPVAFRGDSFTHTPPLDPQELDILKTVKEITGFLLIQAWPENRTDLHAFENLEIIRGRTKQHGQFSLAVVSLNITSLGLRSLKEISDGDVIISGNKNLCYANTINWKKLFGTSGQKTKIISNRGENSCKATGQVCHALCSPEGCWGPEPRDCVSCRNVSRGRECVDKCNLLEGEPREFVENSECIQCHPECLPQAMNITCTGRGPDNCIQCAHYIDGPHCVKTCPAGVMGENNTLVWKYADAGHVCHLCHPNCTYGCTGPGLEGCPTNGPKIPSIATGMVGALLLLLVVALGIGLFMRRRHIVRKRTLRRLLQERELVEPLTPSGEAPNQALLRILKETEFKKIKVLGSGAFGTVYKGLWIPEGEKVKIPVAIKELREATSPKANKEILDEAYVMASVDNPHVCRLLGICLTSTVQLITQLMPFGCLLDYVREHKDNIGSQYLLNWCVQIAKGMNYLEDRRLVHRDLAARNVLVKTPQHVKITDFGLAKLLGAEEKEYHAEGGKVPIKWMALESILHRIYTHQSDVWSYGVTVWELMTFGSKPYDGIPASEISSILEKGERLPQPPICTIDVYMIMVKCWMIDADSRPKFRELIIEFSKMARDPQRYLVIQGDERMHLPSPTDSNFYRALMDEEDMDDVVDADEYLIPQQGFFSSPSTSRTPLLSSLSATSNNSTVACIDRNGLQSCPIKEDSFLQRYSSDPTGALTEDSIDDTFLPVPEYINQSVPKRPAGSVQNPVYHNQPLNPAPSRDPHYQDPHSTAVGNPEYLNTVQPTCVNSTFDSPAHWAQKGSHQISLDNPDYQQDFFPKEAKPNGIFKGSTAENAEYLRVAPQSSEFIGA

broad panel of kinases [12] = target: broad panel of kinases (Homo sapiens, UniProt Q8IU85); conditions: CAMK1D; 1 μM
broad panel of kinases [13] = target: broad panel of kinases (Homo sapiens, UniProt P04049); conditions: RAF1; 1 μM
broad panel of kinases [14] = target: broad panel of kinases (Homo sapiens, UniProt Q9Y2K2); conditions: QSK; 1 μM
broad panel of kinases [15] = target: broad panel of kinases (Homo sapiens, UniProt Q92630); conditions: DYRK2; 1 μM
broad panel of kinases [16] = target: broad panel of kinases (Homo sapiens, UniProt Q96NX5); conditions: CAMK1G; 1 μM
broad panel of kinases [17] = target: broad panel of kinases (Homo sapiens, UniProt P36897); conditions: TGFBR1; 1 μM
Chain of broad panel of kinases (Homo sapiens, UniProt P36897) (P36897 34-503 limits assumed): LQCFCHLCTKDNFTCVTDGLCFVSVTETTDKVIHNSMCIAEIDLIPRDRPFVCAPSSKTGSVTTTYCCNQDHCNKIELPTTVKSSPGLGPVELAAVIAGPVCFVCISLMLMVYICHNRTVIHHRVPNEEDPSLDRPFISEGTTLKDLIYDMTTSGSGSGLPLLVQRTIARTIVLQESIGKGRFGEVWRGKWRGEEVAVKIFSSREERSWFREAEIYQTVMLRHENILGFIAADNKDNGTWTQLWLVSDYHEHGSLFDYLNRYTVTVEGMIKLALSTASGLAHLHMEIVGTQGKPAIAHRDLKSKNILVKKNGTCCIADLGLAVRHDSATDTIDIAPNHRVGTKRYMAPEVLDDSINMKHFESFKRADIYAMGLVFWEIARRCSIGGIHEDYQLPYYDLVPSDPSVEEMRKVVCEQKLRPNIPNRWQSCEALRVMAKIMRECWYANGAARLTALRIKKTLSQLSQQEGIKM

broad panel of kinases [18] = target: broad panel of kinases (Homo sapiens, UniProt P00533, G719S); conditions: EGFR(G719S); 1 μM
Chain of broad panel of kinases (Homo sapiens, UniProt P00533, G719S) (P00533 25-1210 G719S limits assumed): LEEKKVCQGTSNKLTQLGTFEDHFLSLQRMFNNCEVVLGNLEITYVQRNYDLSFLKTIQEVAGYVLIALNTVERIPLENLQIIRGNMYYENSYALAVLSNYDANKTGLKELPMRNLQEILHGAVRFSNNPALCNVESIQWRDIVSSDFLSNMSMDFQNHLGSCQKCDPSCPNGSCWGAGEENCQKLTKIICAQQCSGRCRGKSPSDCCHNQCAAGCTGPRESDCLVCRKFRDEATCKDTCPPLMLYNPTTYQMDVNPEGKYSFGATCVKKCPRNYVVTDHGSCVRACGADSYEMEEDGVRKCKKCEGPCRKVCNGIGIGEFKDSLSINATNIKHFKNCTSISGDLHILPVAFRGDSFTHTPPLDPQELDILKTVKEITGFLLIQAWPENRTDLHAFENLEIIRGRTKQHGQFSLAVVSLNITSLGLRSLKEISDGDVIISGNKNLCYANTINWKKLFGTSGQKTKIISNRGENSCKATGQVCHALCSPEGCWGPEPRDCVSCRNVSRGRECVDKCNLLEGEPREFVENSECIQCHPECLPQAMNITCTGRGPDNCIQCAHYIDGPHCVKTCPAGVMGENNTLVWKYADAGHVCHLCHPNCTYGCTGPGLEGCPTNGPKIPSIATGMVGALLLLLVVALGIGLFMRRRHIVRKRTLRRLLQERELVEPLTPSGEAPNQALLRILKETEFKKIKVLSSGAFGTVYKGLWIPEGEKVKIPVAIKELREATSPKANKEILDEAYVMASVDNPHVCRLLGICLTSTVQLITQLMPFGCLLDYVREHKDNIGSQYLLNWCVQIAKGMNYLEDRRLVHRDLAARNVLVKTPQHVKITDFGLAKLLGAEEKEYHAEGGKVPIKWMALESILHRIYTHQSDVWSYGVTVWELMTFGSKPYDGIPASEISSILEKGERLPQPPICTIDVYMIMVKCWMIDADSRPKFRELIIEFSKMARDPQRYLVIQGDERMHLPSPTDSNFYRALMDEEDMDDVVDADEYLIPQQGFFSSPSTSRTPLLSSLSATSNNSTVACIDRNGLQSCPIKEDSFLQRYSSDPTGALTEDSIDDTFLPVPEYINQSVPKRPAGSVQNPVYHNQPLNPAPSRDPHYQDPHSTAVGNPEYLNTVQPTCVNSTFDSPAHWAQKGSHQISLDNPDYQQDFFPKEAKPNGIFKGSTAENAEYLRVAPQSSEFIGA

broad panel of kinases [19] = target: broad panel of kinases (Plasmodium falciparum, UniProt P61075)
broad panel of kinases [20] = target: broad panel of kinases (Homo sapiens, UniProt Q9C098); conditions: DCAMKL3; 1 μM
broad panel of kinases [21] = target: broad panel of kinases (Homo sapiens, UniProt Q14680); conditions: MELK; 1 μM
broad panel of kinases [22] = target: broad panel of kinases (Homo sapiens, UniProt P57058); conditions: HUNK; 1 μM
broad panel of kinases [23] = target: broad panel of kinases (Homo sapiens, UniProt P10721, V559D); conditions: KIT(V559D); 1 μM
Chain of broad panel of kinases (Homo sapiens, UniProt P10721, V559D) (P10721 26-976 V559D limits assumed): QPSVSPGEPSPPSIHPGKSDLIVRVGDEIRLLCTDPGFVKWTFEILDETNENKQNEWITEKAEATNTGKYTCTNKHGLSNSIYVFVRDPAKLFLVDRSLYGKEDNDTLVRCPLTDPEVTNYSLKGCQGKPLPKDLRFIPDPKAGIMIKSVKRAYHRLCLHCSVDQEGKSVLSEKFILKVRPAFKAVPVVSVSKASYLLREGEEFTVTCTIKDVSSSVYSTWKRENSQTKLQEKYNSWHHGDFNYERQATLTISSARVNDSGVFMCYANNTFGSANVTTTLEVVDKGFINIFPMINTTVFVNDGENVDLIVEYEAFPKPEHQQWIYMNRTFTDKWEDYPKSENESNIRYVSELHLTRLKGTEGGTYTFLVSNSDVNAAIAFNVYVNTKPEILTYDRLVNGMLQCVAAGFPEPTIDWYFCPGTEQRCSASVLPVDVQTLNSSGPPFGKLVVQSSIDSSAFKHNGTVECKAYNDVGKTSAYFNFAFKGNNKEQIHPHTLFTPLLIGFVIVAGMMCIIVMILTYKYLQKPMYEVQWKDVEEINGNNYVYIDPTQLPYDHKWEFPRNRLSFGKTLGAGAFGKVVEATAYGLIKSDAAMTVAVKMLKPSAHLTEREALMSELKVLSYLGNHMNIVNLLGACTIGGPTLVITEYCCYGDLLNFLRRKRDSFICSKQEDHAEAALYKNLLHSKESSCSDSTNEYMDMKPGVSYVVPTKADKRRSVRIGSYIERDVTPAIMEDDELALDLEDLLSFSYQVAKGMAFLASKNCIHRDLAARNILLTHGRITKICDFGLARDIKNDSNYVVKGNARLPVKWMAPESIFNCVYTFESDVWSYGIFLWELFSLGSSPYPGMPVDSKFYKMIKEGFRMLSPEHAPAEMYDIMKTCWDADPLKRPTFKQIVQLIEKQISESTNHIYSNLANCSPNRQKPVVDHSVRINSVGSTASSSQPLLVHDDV

broad panel of kinases [24] = target: broad panel of kinases (Homo sapiens, UniProt P68400); conditions: CSNK2A1; 1 μM
broad panel of kinases [25] = target: broad panel of kinases (Homo sapiens, UniProt P51957); conditions: NEK4; 1 μM
broad panel of kinases [26] = target: broad panel of kinases (Homo sapiens, UniProt Q9H1R3); conditions: MYLK2; 1 μM
broad panel of kinases [27] = target: broad panel of kinases (Homo sapiens, UniProt P10721, T670I/V559D); conditions: KIT(V559D, T670I); 1 μM
Chain of broad panel of kinases (Homo sapiens, UniProt P10721, T670I/V559D) (P10721 26-976 V559D/T670I limits assumed): as the sequence (P10721 26-976 V559D limits assumed) above, with T645I counted along it

broad panel of kinases [28] = target: broad panel of kinases (Homo sapiens, UniProt Q86YV6); conditions: MYLK4; 1 μM
broad panel of kinases [29] = target: broad panel of kinases (Homo sapiens, UniProt Q14164); conditions: IKK-epsilon; 1 μM
broad panel of kinases [30] = target: broad panel of kinases (Homo sapiens, UniProt P53779); conditions: JNK3; 1 μM
broad panel of kinases [31] = target: broad panel of kinases (Homo sapiens, UniProt P0C264); conditions: SgK110; 1 μM
broad panel of kinases [32] = target: broad panel of kinases (Homo sapiens, UniProt O00329); conditions: PIK3CD; 1 μM
broad panel of kinases [33] = target: broad panel of kinases (Homo sapiens, UniProt Q07002); conditions: PCTK3; 1 μM
broad panel of kinases [34] = target: broad panel of kinases (Homo sapiens, UniProt Q96PY6); conditions: NEK1; 1 μM
broad panel of kinases [35] = target: broad panel of kinases (Homo sapiens, UniProt Q9UQM7); conditions: CAMK2A; 1 μM
broad panel of kinases [36] = target: broad panel of kinases (Homo sapiens, UniProt Q9UIK4); conditions: DAPK2; 1 μM
broad panel of kinases [37] = target: broad panel of kinases (Homo sapiens, UniProt Q5S007, G2019S); conditions: LRRK2(G2019S); 1 μM

How did the “percent of control binding remaining (lower = stronger binding)” value (broad panel of kinases [1]) turn out when `C=CC(=O)N1CC[C@H](Nc2nc(CN3CCOCC3)cc(Nc3ncc(C(=O)Nc4c(C)cccc4C)s3)n2)C1` [Example I-2] was run?
The value was 100%.

And the “percent of control binding remaining (lower = stronger binding)” value (broad panel of kinases [2])?
Its value is 98%.

And the “percent of control binding remaining (lower = stronger binding)” value (broad panel of kinases [3])?
Its value is 0.1%.

What about the “percent of control binding remaining (lower = stronger binding)” value (broad panel of kinases [4]) of the same compound?
The value was 92%.

And the “percent of control binding remaining (lower = stronger binding)” value (broad panel of kinases [5])?
Its value is 94%.

And the “percent of control binding remaining (lower = stronger binding)” value (broad panel of kinases [6])?
Its value is 88%.

What about the “percent of control binding remaining (lower = stronger binding)” value (broad panel of kinases [7]) of the same compound?
Its value is 94%.

What about the “percent of control binding remaining (lower = stronger binding)” value (broad panel of kinases [8]) of the same compound?
Its value is 0.1%.

And the “percent of control binding remaining (lower = stronger binding)” value (broad panel of kinases [9])?
The value was 100%.

What about the “percent of control binding remaining (lower = stronger binding)” value (broad panel of kinases [10]; RSK2(Kin.Dom.1-N-terminal)) of the same compound?
Its value is 95%.

What about the “percent of control binding remaining (lower = stronger binding)” value (broad panel of kinases [10]; RSK2(Kin.Dom.2-C-terminal)) of the same compound?
Its value is 100%.

What about the “percent of control binding remaining (lower = stronger binding)” value (broad panel of kinases [11]) of the same compound?
The value was 5.6%.

What about the “percent of control binding remaining (lower = stronger binding)” value (broad panel of kinases [12]) of the same compound?
The value was 100%.

And the “percent of control binding remaining (lower = stronger binding)” value (broad panel of kinases [13])?
Its value is 26%.

And the “percent of control binding remaining (lower = stronger binding)” value (broad panel of kinases [14])?
The value was 36%.

What about the “percent of control binding remaining (lower = stronger binding)” value (broad panel of kinases [15]) of the same compound?
Its value is 88%.

And the “percent of control binding remaining (lower = stronger binding)” value (broad panel of kinases [16])?
Its value is 89%.

And the “percent of control binding remaining (lower = stronger binding)” value (broad panel of kinases [17])?
The value was 50%.

What about the “percent of control binding remaining (lower = stronger binding)” value (broad panel of kinases [18]) of the same compound?
Its value is 17%.

And the “% change compared to control” value (broad panel of kinases [19])?
Its value is 100%.

What about the “percent of control binding remaining (lower = stronger binding)” value (broad panel of kinases [20]) of the same compound?
The value was 97%.

What about the “percent of control binding remaining (lower = stronger binding)” value (broad panel of kinases [21]) of the same compound?
The value was 84%.

What about the “percent of control binding remaining (lower = stronger binding)” value (broad panel of kinases [22]) of the same compound?
The value was 100%.

What about the “percent of control binding remaining (lower = stronger binding)” value (broad panel of kinases [23]) of the same compound?
Its value is 0%.

And the “percent of control binding remaining (lower = stronger binding)” value (broad panel of kinases [24])?
Its value is 90%.

What about the “percent of control binding remaining (lower = stronger binding)” value (broad panel of kinases [25]) of the same compound?
Its value is 100%.

What about the “percent of control binding remaining (lower = stronger binding)” value (broad panel of kinases [26]) of the same compound?
The value was 100%.

And the “percent of control binding remaining (lower = stronger binding)” value (broad panel of kinases [27])?
The value was 100%.

And the “percent of control binding remaining (lower = stronger binding)” value (broad panel of kinases [28])?
The value was 98%.

And the “percent of control binding remaining (lower = stronger binding)” value (broad panel of kinases [29])?
Its value is 100%.

And the “percent of control binding remaining (lower = stronger binding)” value (broad panel of kinases [30])?
The value was 97%.

What about the “percent of control binding remaining (lower = stronger binding)” value (broad panel of kinases [31]) of the same compound?
The value was 59%.

What about the “percent of control binding remaining (lower = stronger binding)” value (broad panel of kinases [32]) of the same compound?
Its value is 79%.

And the “percent of control binding remaining (lower = stronger binding)” value (broad panel of kinases [33])?
Its value is 99%.

And the “percent of control binding remaining (lower = stronger binding)” value (broad panel of kinases [34])?
Its value is 88%.

What about the “percent of control binding remaining (lower = stronger binding)” value (broad panel of kinases [35]) of the same compound?
Its value is 86%.

And the “percent of control binding remaining (lower = stronger binding)” value (broad panel of kinases [36])?
Its value is 86%.

And the “percent of control binding remaining (lower = stronger binding)” value (broad panel of kinases [37])?
Its value is 100%.

`C=CC(=O)N1CC[C@H](Nc2nccc(Nc3ncc(C(=O)Nc4c(C)cccc4C)s3)n2)C1` [Example I-3] was tested. Which “percent of control binding remaining (lower = stronger binding)” value (broad panel of kinases [1]) did it give?
Its value is 86%.

And the “percent of control binding remaining (lower = stronger binding)” value (broad panel of kinases [2])?
Its value is 100%.

And the “percent of control binding remaining (lower = stronger binding)” value (broad panel of kinases [3])?
Its value is 0%.

And the “percent of control binding remaining (lower = stronger binding)” value (broad panel of kinases [4])?
Its value is 78%.

What about the “percent of control binding remaining (lower = stronger binding)” value (broad panel of kinases [5]) of the same compound?
Its value is 100%.

What about the “percent of control binding remaining (lower = stronger binding)” value (broad panel of kinases [6]) of the same compound?
Its value is 85%.

And the “percent of control binding remaining (lower = stronger binding)” value (broad panel of kinases [7])?
The value was 90%.

What about the “percent of control binding remaining (lower = stronger binding)” value (broad panel of kinases [8]) of the same compound?
Its value is 0.1%.

What about the “percent of control binding remaining (lower = stronger binding)” value (broad panel of kinases [9]) of the same compound?
Its value is 100%.

What about the “percent of control binding remaining (lower = stronger binding)” value (broad panel of kinases [10]; RSK2(Kin.Dom.1-N-terminal)) of the same compound?
The value was 97%.

What about the “percent of control binding remaining (lower = stronger binding)” value (broad panel of kinases [10]; RSK2(Kin.Dom.2-C-terminal)) of the same compound?
The value was 100%.

What about the “percent of control binding remaining (lower = stronger binding)” value (broad panel of kinases [11]) of the same compound?
The value was 2.6%.

And the “percent of control binding remaining (lower = stronger binding)” value (broad panel of kinases [12])?
The value was 90%.

And the “percent of control binding remaining (lower = stronger binding)” value (broad panel of kinases [13])?
Its value is 26%.

What about the “percent of control binding remaining (lower = stronger binding)” value (broad panel of kinases [14]) of the same compound?
The value was 50%.

And the “percent of control binding remaining (lower = stronger binding)” value (broad panel of kinases [15])?
Its value is 74%.

And the “percent of control binding remaining (lower = stronger binding)” value (broad panel of kinases [16])?
Its value is 97%.

And the “percent of control binding remaining (lower = stronger binding)” value (broad panel of kinases [17])?
The value was 97%.

And the “percent of control binding remaining (lower = stronger binding)” value (broad panel of kinases [18])?
Its value is 7.6%.

What about the “% change compared to control” value (broad panel of kinases [19]) of the same compound?
The value was 100%.

What about the “percent of control binding remaining (lower = stronger binding)” value (broad panel of kinases [20]) of the same compound?
The value was 92%.

What about the “percent of control binding remaining (lower = stronger binding)” value (broad panel of kinases [21]) of the same compound?
The value was 82%.

And the “percent of control binding remaining (lower = stronger binding)” value (broad panel of kinases [22])?
Its value is 83%.

And the “percent of control binding remaining (lower = stronger binding)” value (broad panel of kinases [23])?
Its value is 0%.

And the “percent of control binding remaining (lower = stronger binding)” value (broad panel of kinases [24])?
Its value is 98%.

And the “percent of control binding remaining (lower = stronger binding)” value (broad panel of kinases [25])?
Its value is 100%.

What about the “percent of control binding remaining (lower = stronger binding)” value (broad panel of kinases [26]) of the same compound?
Its value is 100%.

And the “percent of control binding remaining (lower = stronger binding)” value (broad panel of kinases [27])?
The value was 100%.

And the “percent of control binding remaining (lower = stronger binding)” value (broad panel of kinases [28])?
Its value is 100%.

And the “percent of control binding remaining (lower = stronger binding)” value (broad panel of kinases [29])?
Its value is 100%.

What about the “percent of control binding remaining (lower = stronger binding)” value (broad panel of kinases [30]) of the same compound?
The value was 91%.

What about the “percent of control binding remaining (lower = stronger binding)” value (broad panel of kinases [31]) of the same compound?
Its value is 95%.

What about the “percent of control binding remaining (lower = stronger binding)” value (broad panel of kinases [32]) of the same compound?
The value was 85%.

And the “percent of control binding remaining (lower = stronger binding)” value (broad panel of kinases [33])?
The value was 92%.

What about the “percent of control binding remaining (lower = stronger binding)” value (broad panel of kinases [34]) of the same compound?
The value was 85%.

What about the “percent of control binding remaining (lower = stronger binding)” value (broad panel of kinases [35]) of the same compound?
Its value is 83%.

And the “percent of control binding remaining (lower = stronger binding)” value (broad panel of kinases [36])?
Its value is 80%.

What about the “percent of control binding remaining (lower = stronger binding)” value (broad panel of kinases [37]) of the same compound?
Its value is 99%.
